Data taken from patent US20080220080A1, “Multiparticulate Pharmaceutical form Comprising Pellets with a Substance Having a Modular Effect in Relation to Active Ingredient Release” (RÖHM GMBH, priority 2005, published 2008).
“Also recorded” adds a separate entry of the source.

Tests used:
[1] = active ingredient delivery in PhEur phosphate buffer of pH 6.8 in a USP dissolution tester (theophylline pellets); type: physicochemical; settings: substance in pellet core under EUDRAGIT RS coating
[2] = in vitro activity of modulating substances in purified water and phosphate buffer pH 6.8; type: physicochemical; settings: purified water vs phosphate buffer pH 6.8
Text: In the human and animal gastrointestinal tract the concentration of ions may vary to a certain extent and thus may influence the activity of the modulating substances. For reproducible in-vivo results substances having a modulating effect, which are not or only a little influenced by varying ionic strength are preferred.

SMILES	effect of the modulating substance on the rate of active ingredient delivery [1]	in vitro activity of the modulating substance in purified water compared with phosphate buffer pH 6.8 (Pharm. Eur.) [2]	effect of the modulating substance on the rate of active ingredient delivery ([1]; listed as Na acetate)	effect of the modulating substance on the rate of active ingredient delivery ([1]; listed as NaCl)	effect of the modulating substance on the rate of active ingredient delivery ([1]; listed as Na succinate)
O=C([O-])CC(O)(CC(=O)[O-])C(=O)[O-].[Na+].[Na+].[Na+] [Na citrate]	decrease the rate of active ingredient delivery	–	–	–	–
O=C(O)CC(O)(CC(=O)O)C(=O)O [citric acid]	accelerating effect; also recorded: increase the rate of active ingredient delivery	almost the same activity	–	–	–
CC(=O)[O-].[Na+] [sodium acetate]	accelerating effect	–	increase the rate of active ingredient delivery	–	–
[Cl-].[Na+] [sodium chloride]	reducing effect	almost the same activity	–	decrease the rate of active ingredient delivery	–
O=C([O-])CCC(=O)[O-].[Na+].[Na+] [sodium succinate]	accelerating effect	almost the same activity	–	–	increase the rate of active ingredient delivery
